Laboratory results: patent US8957114B2, “Formulations, salts and polymorphs of transnorsertraline and uses thereof” (Sunovion Pharmaceuticals Inc., priority 2009, dated 2015)
Read-outs that look alike come from different tables or passages of the source. Marks after values point to notes of the source that are not given here.

Assays:
[1] = Solubility of transnorsertraline salts in de-ionized water (HPLC); details: saturated solution in de-ionized water
Description: For each salt, saturated solutions with excess solids in deionized water were prepared in 20 mL clear glass scintillation vials with screw caps. All samples were shaken at 300 rpm at ambient conditions for up to nine days until equilibrium was achieved. Solubility was determined using a HPLC method (Table 5).

[2] = VTI moisture sorption isotherm (hygroscopicity); format: physicochemical; details: for VTI Adsorp. (% wt gain 25 to 95% RH) / VTI Desorp. (% wt loss 95 to 25% RH): 25° C.
Description: (§1) Each salt was analyzed by coulometric titration using an EM Scientific Aquastar C3000 titrator to determine water content. […] Each salt was analyzed using a Perkin Elmer TGA 7 Thermal Gravimetric Analyzer (TGA). […] Moisture sorption isotherms for each salt were generated using the VTI SGA-100 Symmetric Vapor Sorption Analyzer. Samples were run as received without pre-analysis drying. Equilibrium criteria were the lesser of 0.01 wt % change in 5 minutes or 180 minutes at each relative humidity (RH) step. […] Analysis was repeated for each sample in consecutive analyses (sample was not removed from analyzer). Sample sizes ranged from 18 mg to 35 mg.

[3] = Moisture content by coulometric Karl Fischer titration (KF); format: physicochemical
Description: as §1

[4] = Thermal gravimetric analysis (TGA) weight loss; format: physicochemical; details: heated 25° C. to 325° C. at 10° C./min
Description: The sixteen salts of transnorsertraline of Example 6.14 were analyzed for moisture content and hygroscopicity. Each salt was analyzed by coulometric titration using an EM Scientific Aquastar C3000 titrator to determine water content. Sample size ranged from 18 mg to 134 mg. Each salt was analyzed using a Perkin Elmer TGA 7 Thermal Gravimetric Analyzer (TGA). […] Moisture sorption isotherms for each salt were generated using the VTI SGA-100 Symmetric Vapor Sorption Analyzer. Samples were run as received without pre-analysis drying. Equilibrium criteria were the lesser of 0.01 wt % change in 5 minutes or 180 minutes at each relative humidity (RH) step. Temperature was fixed at 25° C. and the relative humidity steps (25 to 95% to 25%) were in 5% increments. Analysis was repeated for each sample in consecutive analyses (sample was not removed from analyzer). Sample sizes ranged from 18 mg to 35 mg.

[5] = Solubility of transnorsertraline salts in aqueous buffer systems (SGF, acetate buffer pH 4.5, SIF; HPLC); format: physicochemical
Description: Saturated solutions with excess solids were prepared in 20 mL clear glass scintillation vials. Simulated gastric fluid (pH 1.0, ˜0.1N HCl, 0.03M NaCl, no enzymes), simulated intestinal fluid (pH 6.8, 0.05M KH2PO4, ˜0.02N NaOH, no enzymes), and acetate buffer (pH 4.5, 0.02M sodium acetate, 0.03M acetic acid) were prepared in accordance with USP28 (USP28 Test Solutions p2855, Volumetric Solutions p2863). […] Solubility was determined using a HPLC method.

[6] = Polymorphic conversion of anhydrous transnorsertraline hydrochloride to hydrate in aqueous media, in-situ Raman monitoring; format: physicochemical; details: 37° C.
Description: The study of the conversion of anhydrous transnorsertraline hydrochloride to the hydrate form in aqueous media was investigated, using in-situ Raman monitoring.
Raman spectroscopy was performed using a Kaiser Optical Systems Inc. dispersive RamanRXN3 for on-line or in-situ reaction monitoring. The RamanRXN3 system uses an excitation wavelength of 785 nm, with an external cavity-stabilized, diode laser. All spectra were acquired using a ¼″ immersion probe with approximately 100 mW of laser power at the tip of the probe. Different exposure times and numbers of spectrum accumulations were used for the analysis of the two dry samples. An exposure time of 4 seconds with 2 accumulations was used for the monitoring of all form conversions experiments. Wavelength and laser wavelength calibration were performed using an internal neon standard, and diamond Raman shift standard, respectively. The intensity calibration was performed using a Kaiser Raman calibration accessory.
Regions 660-715 cm^−1 and 1430-1490 cm^−1 in particular show little overlapping of the peaks characteristic of each form. Experimental results confirmed that no peaks in the regions […] and 1430-1490 cm^−1 were likely to overlap with peaks of interest to follow the conversion between the two crystalline forms of transnorsertraline hydrochloride.
The conversion of anhydrous transnorsertraline hydrochloride to the monohydrate form was monitored in water. […] Based on the peak intensity ratio I(677 cm^−1)/I(695 cm^−1), an induction time of approximately 1.1 hour was seen before the beginning of the conversion. The end of the conversion was estimated at approximately 2 hours from the beginning of the slurry. […] XRPD analysis of the solids collected at the end of the Raman monitoring of the conversion (after approximately 2 h 10 min) was consistent with the hydrate form, with a small amount of anhydrous form detectable. […] Additionally, the Raman limit of detection of the anhydrous form in the mixture was not estimated.
The conversion of anhydrous transnorsertraline hydrochloride to the hydrate form in water, simulated gastric fluid (SGF) and simulated intestinal fluid (SIF) without enzymes, and 0.1N HCl was monitored at 37° C.
Overall, similar results were obtained in water and simulated gastric fluid, with the start of the form conversion detected at approximately 1.3 hours, with a slightly faster conversion in simulated gastric fluid compared to water. The complete conversion was estimated to occur within 3 to 4 hours in the two media. […] XPRD analysis of the solids collected at the end of each experiments were consistent with the hydrate form, with or without some anhydrous form present. The small amount of anhydrous form may be due to residual solids on the walls of the vessel at the time of the slurry.

[7] = first analysis, listed as Acetate lot 1
[8] = first analysis, listed as Acetate lot 2
[9] = first analysis, listed as Acetate lot 3
[10] = repeated consecutive analysis (second line)
[11] = repeated consecutive analysis (second line), listed as Acetate lot 1
[12] = repeated consecutive analysis (second line), listed as Acetate lot 2
[13] = repeated consecutive analysis (second line), listed as Acetate lot 3
[14] = saturated solution in 0.05M Acetate Buffer (pH 4.5)
[15] = saturated solution in Simulated Gastric Fluid
[16] = saturated solution in Simulated Intestinal Fluid
[17] = first analysis, listed as L-malate lot 1
[18] = first analysis, listed as L-malate lot 2
[19] = first analysis, listed as L-malate lot 3
[20] = SIF without enzymes, small scale

Substance: Transnorsertraline Acetate
- pH [1]: 6.31
- VTI Adsorp. (% wt gain 25 to 95% RH) ([2]; first analysis): 0.07 % wt gain
- VTI Desorp. (% wt loss 95 to 25% RH) ([2]; first analysis): 0.08 % wt loss
- VTI Adsorp. (% wt gain 25 to 95% RH) [2, 7]: 0.07 % wt gain
- VTI Desorp. (% wt loss 95 to 25% RH) [2, 7]: 0.08 % wt loss
- VTI Adsorp. (% wt gain 25 to 95% RH) [2, 8]: 0.22 % wt gain
- VTI Desorp. (% wt loss 95 to 25% RH) [2, 8]: 0.23 % wt loss
- VTI Adsorp. (% wt gain 25 to 95% RH) [2, 9]: 0.33 % wt gain
- VTI Desorp. (% wt loss 95 to 25% RH) [2, 9]: 0.38 % wt loss
- VTI Adsorp. (% wt gain 25 to 95% RH) [2, 10]: 0.08 % wt gain
- VTI Desorp. (% wt loss 95 to 25% RH) [2, 10]: 0.09 % wt loss
- VTI Adsorp. (% wt gain 25 to 95% RH) [2, 11]: 0.08 % wt gain
- VTI Desorp. (% wt loss 95 to 25% RH) [2, 11]: 0.09 % wt loss
- VTI Adsorp. (% wt gain 25 to 95% RH) [2, 12]: 0.23 % wt gain
- VTI Desorp. (% wt loss 95 to 25% RH) [2, 12]: 0.23 % wt loss
- VTI Adsorp. (% wt gain 25 to 95% RH) [2, 13]: 0.35 % wt gain
- VTI Desorp. (% wt loss 95 to 25% RH) [2, 13]: 0.35 % wt loss
- Initial KF (% H2O) [3]: 0.03 % H2O
- Initial KF (% H2O) ([3]; listed as Acetate lot 1): 0.03 % H2O
- Initial KF (% H2O) ([3]; listed as Acetate lot 2): 0.07 % H2O
- Initial KF (% H2O) ([3]; listed as Acetate lot 3): 0.05 % H2O
- TGA (% wt loss) [4]: 0.53 % wt loss
- TGA (% wt loss) ([4]; listed as Acetate lot 1): 0.43 % wt loss
- Solubility in Freebase Equivalents mgA/mL ([5]; pH 1): 0.07 mgA/mL
- Solubility in Freebase Equivalents mgA/mL ([5]; pH 4.5): 3.12 mgA/mL
- Solubility in Freebase Equivalents mgA/mL ([5]; pH 6.8): 0.25 mgA/mL
- pH [5, 14]: 4.79
- pH [5, 15]: 1.26
- pH [5, 16]: 6.63

Substance: Transnorsertraline L-Malate
- pH [1]: 4.15
- VTI Adsorp. (% wt gain 25 to 95% RH) ([2]; first analysis): 0.08 % wt gain
- VTI Desorp. (% wt loss 95 to 25% RH) ([2]; first analysis): 0.08 % wt loss
- VTI Adsorp. (% wt gain 25 to 95% RH) [2, 17]: 0.08 % wt gain
- VTI Desorp. (% wt loss 95 to 25% RH) [2, 17]: 0.08 % wt loss
- VTI Adsorp. (% wt gain 25 to 95% RH) [2, 18]: 0.06 % wt gain
- VTI Desorp. (% wt loss 95 to 25% RH) [2, 18]: 0.07 % wt loss
- VTI Adsorp. (% wt gain 25 to 95% RH) [2, 19]: 5.31 % wt gain
- VTI Desorp. (% wt loss 95 to 25% RH) [2, 19]: 5.23 % wt loss
- VTI Adsorp. (% wt gain 25 to 95% RH) [2, 10]: 0.06 % wt gain
- VTI Desorp. (% wt loss 95 to 25% RH) [2, 10]: 0.06 % wt loss
- VTI Adsorp. (% wt gain 25 to 95% RH) ([2]; repeated consecutive analysis (second line), listed as L-malate lot 1): 0.06 % wt gain
- VTI Adsorp. (% wt gain 25 to 95% RH) ([2]; repeated consecutive analysis (second line), listed as L-malate lot 2): 0.07 % wt gain
- moisture adsorbed more than other L-malate lots ([2]; from 25 to 95% relative humidity): > 5%
- Initial KF (% H2O) [3]: 0.05 % H2O
- Initial KF (% H2O) ([3]; listed as L-malate lot 1): 0.05 % H2O
- Initial KF (% H2O) ([3]; listed as L-malate lot 2): 0.08 % H2O
- Initial KF (% H2O) ([3]; listed as L-malate lot 3): 0.04 % H2O
- TGA (% wt loss) [4]: 0.07 % wt loss
- TGA (% wt loss) ([4]; listed as L-malate lot 1): 0.08 % wt loss
- Solubility in Freebase Equivalents mgA/mL ([5]; pH 1): 0.08^b mgA/mL
- Solubility in Freebase Equivalents mgA/mL ([5]; pH 4.5): 1.59^b mgA/mL
- Solubility in Freebase Equivalents mgA/mL ([5]; pH 6.8): 0.38 mgA/mL
- pH [5, 14]: 4.42
- pH [5, 15]: 1.15
- pH [5, 16]: 6.68

Substance: transnorsertraline hydrochloride [HCl]
- pH [1]: 5.32
- VTI Adsorp. (% wt gain 25 to 95% RH) ([2]; first analysis): 0.01 % wt gain
- VTI Desorp. (% wt loss 95 to 25% RH) ([2]; first analysis): 0.02 % wt loss
- VTI Adsorp. (% wt gain 25 to 95% RH) [2, 10]: 0.01 % wt gain
- VTI Desorp. (% wt loss 95 to 25% RH) [2, 10]: 0.02 % wt loss
- VTI adsorption, weight gain ([2]; second lot, from 25 to 95% relative humidity): 0.01%
- VTI desorption, weight loss ([2]; second lot, from 95% to 25% relative humidity): 0.01%
- Initial KF (% H2O) [3]: 0.02 % H2O
- TGA (% wt loss) [4]: 0.00 % wt loss
- form conversion completed ([6]; 0.1N HCl): approximately 4 hours
- induction time of form conversion ([6]; 0.1N HCl, larger scale): 2 to 2.3 h
- form conversion completed ([6]; SGF without enzymes): 3 to 4 h
- start of form conversion to hydrate ([6]; SGF without enzymes): approximately 1.3 hours
- end of form conversion ([6]; SIF without enzymes, large scale): ~36 h
- start of form conversion to hydrate ([6]; SIF without enzymes, larger scale): ~19 h
- end of form conversion [6, 20]: approximately 12.5 hours
- start of form conversion to hydrate [6, 20]: ~10 h
- form conversion completed ([6]; water): 3 to 4 h
- start of form conversion to hydrate ([6]; water): approximately 1.3 hours
- Solubility in Freebase Equivalents mgA/mL [5]: 0.13 mgA/mL
- Solubility in Freebase Equivalents mgA/mL ([5]; pH 4.5): 2.15 mgA/mL
- Solubility in Freebase Equivalents mgA/mL ([5]; pH 6.8): 0.24 mgA/mL
- pH [5, 14]: 4.58
- pH [5, 15]: 1.28
- pH [5, 16]: 6.75
